Reference: paper PMC4457528, “Identification of Novel Small Molecule Inhibitors of Oncogenic RET Kinase” (PLoS ONE, 2015)
Read-outs that look alike come from different tables or passages of the source.

Legend:
Assay in all cases: KinomeScan kinase panel, single concentration 10 µM
Type in all cases: binding
KinomeScan kinase panel [1] = molecular target: T1, KinomeScan kinase panel (Homo sapiens, UniProt P54646); conditions: AMPK-alpha2, 10 µM; read-out: score (%)
T1 construct: purchased DiscoveRx (KinomeScan)
T1 sequence (P54646 whole entry): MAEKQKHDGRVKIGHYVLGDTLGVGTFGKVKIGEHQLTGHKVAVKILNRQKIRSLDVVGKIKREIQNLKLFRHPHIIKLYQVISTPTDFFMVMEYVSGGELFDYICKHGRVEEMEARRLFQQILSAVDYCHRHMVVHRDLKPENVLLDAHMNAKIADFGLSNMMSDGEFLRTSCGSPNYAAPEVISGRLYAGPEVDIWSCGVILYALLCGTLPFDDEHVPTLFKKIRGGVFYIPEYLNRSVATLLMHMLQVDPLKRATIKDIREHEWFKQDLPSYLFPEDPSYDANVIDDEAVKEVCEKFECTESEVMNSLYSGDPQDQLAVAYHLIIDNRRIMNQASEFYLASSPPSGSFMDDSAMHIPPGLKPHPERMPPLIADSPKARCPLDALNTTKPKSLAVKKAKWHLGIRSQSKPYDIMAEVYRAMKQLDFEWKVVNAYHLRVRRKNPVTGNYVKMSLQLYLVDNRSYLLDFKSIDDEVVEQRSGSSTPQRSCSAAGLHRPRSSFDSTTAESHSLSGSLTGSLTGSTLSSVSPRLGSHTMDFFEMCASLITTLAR

KinomeScan kinase panel [2] = molecular target: T2, KinomeScan kinase panel (Homo sapiens, UniProt P37173); conditions: read-out: score (%)
T2 construct: purchased DiscoveRx (KinomeScan)

KinomeScan kinase panel [3] = molecular target: T3, KinomeScan kinase panel (Homo sapiens, UniProt O60674); conditions: 10 µM
T3 construct: purchased DiscoveRx (KinomeScan)
T3 sequence (O60674 whole entry): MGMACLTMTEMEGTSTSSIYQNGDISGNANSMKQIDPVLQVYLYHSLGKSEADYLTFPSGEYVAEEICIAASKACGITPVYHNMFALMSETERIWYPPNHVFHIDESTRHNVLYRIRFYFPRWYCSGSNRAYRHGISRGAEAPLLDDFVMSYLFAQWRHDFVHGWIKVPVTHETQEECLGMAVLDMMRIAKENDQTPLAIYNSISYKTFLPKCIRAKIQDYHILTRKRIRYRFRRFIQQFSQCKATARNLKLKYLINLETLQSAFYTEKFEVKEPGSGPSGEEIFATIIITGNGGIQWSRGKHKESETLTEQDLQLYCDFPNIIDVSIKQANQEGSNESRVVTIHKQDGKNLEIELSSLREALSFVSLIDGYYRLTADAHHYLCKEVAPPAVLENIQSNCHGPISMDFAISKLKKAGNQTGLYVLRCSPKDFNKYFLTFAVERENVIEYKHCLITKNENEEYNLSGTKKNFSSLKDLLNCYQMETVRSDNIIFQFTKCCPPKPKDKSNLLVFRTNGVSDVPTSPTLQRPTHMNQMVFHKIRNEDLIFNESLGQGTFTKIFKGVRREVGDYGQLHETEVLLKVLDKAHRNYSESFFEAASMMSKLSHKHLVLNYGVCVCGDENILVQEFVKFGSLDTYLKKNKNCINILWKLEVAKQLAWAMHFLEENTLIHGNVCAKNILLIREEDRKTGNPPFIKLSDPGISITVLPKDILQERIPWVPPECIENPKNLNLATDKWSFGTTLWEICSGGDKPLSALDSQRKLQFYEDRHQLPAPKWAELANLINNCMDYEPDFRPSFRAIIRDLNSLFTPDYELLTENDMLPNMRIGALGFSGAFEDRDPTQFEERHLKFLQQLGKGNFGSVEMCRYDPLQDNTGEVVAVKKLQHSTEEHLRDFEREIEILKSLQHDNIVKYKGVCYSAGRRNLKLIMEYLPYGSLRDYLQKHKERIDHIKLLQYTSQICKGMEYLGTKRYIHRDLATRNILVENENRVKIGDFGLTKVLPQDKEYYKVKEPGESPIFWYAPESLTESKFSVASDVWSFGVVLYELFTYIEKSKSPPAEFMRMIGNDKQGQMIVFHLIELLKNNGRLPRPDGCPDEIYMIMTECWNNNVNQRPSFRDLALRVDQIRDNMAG

KinomeScan kinase panel [4] = molecular target: T4, KinomeScan kinase panel (Homo sapiens, UniProt Q02156); conditions: 10 µM, read-out: score (%)
T4 construct: purchased DiscoveRx (KinomeScan)
T4 sequence (Q02156 1-737): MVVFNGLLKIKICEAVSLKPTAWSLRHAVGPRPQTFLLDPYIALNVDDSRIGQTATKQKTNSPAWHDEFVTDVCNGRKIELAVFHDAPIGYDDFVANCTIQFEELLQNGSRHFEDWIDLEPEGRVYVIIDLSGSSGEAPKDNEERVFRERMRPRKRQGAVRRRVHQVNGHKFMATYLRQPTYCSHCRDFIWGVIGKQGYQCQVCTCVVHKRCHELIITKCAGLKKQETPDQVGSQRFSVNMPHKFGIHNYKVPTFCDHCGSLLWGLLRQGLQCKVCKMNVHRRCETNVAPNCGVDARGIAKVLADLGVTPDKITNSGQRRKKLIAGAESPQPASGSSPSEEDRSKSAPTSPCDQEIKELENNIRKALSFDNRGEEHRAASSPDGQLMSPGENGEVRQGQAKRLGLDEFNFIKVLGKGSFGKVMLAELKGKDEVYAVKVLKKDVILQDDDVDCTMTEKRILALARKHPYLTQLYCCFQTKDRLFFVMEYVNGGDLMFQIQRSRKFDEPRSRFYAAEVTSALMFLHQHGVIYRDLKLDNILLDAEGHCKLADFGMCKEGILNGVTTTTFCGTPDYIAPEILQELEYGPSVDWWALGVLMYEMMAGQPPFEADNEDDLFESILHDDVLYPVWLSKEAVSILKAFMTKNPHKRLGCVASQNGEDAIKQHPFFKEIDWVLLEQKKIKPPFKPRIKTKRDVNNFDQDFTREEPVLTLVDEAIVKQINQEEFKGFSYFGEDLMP

KinomeScan kinase panel [5] = molecular target: T5, KinomeScan kinase panel (Homo sapiens, UniProt O95819); conditions: MAP4K4, 10 µM; read-out: score (%)
T5 construct: purchased DiscoveRx (KinomeScan)
T5 sequence (O95819 whole entry): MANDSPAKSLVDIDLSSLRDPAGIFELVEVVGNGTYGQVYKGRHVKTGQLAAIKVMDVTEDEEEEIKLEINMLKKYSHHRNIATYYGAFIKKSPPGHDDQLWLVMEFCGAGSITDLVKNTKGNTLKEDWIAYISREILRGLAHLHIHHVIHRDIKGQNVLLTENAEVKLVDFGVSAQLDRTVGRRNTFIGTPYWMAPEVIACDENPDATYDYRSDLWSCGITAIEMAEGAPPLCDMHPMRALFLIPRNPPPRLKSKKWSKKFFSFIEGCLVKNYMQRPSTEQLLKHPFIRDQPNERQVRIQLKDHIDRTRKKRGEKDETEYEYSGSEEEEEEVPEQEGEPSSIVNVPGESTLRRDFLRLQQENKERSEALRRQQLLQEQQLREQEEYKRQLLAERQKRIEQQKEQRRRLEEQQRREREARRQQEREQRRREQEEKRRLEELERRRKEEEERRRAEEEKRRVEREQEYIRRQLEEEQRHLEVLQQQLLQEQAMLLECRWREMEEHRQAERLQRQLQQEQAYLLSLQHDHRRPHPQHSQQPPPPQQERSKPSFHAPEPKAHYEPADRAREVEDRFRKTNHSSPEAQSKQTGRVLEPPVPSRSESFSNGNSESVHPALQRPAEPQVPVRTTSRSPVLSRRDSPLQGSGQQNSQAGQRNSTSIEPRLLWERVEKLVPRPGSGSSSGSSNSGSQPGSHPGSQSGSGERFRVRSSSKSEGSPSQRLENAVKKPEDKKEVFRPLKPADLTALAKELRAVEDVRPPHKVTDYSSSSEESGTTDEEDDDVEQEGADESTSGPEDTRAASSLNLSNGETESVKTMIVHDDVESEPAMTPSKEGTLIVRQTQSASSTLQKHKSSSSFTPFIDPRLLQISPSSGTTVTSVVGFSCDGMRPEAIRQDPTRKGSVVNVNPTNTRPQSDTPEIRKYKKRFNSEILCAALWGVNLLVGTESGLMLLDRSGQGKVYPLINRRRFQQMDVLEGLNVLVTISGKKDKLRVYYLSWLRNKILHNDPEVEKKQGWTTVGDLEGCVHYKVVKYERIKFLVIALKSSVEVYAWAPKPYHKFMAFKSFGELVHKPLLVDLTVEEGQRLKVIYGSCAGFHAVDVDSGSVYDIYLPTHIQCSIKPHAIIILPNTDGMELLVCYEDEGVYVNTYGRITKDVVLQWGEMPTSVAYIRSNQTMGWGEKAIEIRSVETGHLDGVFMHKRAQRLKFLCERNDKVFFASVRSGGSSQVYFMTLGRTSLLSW

KinomeScan kinase panel [6] = molecular target: T6, KinomeScan kinase panel (Homo sapiens, UniProt P31749); conditions: AKT1, 10 µM; read-out: score (%)
T6 construct: purchased DiscoveRx (KinomeScan)
T6 sequence (P31749 whole entry): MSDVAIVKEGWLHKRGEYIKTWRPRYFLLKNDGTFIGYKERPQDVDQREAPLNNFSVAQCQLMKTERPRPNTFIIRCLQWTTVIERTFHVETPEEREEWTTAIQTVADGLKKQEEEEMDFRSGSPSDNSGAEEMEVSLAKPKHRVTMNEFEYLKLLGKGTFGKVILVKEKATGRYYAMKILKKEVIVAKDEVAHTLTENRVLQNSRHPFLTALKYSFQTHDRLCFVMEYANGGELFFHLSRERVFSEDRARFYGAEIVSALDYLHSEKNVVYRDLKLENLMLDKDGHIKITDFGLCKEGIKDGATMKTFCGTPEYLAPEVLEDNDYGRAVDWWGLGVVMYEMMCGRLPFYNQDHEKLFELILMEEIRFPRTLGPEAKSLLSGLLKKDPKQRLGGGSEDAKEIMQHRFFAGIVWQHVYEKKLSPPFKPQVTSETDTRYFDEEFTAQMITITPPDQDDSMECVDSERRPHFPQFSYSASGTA

KinomeScan kinase panel [7] = molecular target: T7, KinomeScan kinase panel (Homo sapiens, UniProt P35968); conditions: kinase VEGFR2; 10 µM; read-out: score (%)
T7 construct: purchased DiscoveRx (KinomeScan)
T7 sequence (P35968 20-1356): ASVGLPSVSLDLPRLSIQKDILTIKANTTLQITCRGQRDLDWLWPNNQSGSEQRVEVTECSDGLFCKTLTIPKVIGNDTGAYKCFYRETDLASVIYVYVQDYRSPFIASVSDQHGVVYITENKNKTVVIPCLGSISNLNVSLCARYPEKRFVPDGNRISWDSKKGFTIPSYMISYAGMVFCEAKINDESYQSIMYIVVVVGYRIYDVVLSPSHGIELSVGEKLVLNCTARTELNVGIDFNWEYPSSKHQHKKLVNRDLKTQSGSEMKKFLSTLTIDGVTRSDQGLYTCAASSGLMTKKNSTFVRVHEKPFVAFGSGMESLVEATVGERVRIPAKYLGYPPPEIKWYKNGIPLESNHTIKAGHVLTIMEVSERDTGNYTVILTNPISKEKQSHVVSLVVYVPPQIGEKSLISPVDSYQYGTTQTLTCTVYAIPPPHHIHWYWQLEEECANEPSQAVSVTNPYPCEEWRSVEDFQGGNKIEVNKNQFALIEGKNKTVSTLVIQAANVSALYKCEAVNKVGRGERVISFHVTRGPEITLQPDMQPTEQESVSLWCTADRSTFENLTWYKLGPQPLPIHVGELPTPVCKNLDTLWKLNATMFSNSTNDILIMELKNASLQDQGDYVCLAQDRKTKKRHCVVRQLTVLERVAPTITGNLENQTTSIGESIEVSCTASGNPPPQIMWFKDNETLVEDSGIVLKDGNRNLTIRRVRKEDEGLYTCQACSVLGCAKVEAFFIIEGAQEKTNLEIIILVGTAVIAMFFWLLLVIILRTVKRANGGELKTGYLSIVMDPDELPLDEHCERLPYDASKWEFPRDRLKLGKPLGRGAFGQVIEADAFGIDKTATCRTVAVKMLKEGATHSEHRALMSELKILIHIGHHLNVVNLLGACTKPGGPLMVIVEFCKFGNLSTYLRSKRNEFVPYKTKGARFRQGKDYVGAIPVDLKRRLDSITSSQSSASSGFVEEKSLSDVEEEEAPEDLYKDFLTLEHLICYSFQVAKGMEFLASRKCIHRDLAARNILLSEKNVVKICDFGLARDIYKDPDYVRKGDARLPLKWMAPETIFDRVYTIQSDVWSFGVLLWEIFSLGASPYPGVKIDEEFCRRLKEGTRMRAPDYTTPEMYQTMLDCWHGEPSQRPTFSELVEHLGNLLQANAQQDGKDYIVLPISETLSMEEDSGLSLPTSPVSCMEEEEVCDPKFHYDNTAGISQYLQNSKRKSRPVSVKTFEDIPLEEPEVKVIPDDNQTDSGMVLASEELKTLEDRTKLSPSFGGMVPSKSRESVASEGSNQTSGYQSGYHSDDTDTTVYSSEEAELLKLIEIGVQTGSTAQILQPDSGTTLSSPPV

KinomeScan kinase panel [8] = molecular target: T8, KinomeScan kinase panel (Homo sapiens, UniProt Q00526); conditions: CDK3, 10 µM
T8 construct: purchased DiscoveRx (KinomeScan)
T8 sequence (Q00526 whole entry): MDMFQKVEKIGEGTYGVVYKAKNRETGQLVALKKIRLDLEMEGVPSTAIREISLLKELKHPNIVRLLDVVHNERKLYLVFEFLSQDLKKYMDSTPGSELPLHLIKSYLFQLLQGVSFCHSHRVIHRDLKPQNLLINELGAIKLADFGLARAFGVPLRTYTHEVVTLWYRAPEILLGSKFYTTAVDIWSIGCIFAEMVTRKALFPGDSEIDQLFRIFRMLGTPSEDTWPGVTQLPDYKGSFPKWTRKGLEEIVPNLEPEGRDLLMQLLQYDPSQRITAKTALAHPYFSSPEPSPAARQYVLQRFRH

KinomeScan kinase panel [9] = molecular target: T9, KinomeScan kinase panel (Homo sapiens, UniProt P51812); conditions: 10 µM, read-out: score (%)
T9 construct: purchased DiscoveRx (KinomeScan)

KinomeScan kinase panel [10] = molecular target: T10, KinomeScan kinase panel (Homo sapiens, UniProt P00533, DEL752-759)
T10 construct: purchased DiscoveRx (KinomeScan)

KinomeScan kinase panel [11] = molecular target: T11, KinomeScan kinase panel (Homo sapiens, UniProt Q13237); conditions: read-out: score (%)
T11 construct: purchased DiscoveRx (KinomeScan)
T11 sequence (Q13237 1-762): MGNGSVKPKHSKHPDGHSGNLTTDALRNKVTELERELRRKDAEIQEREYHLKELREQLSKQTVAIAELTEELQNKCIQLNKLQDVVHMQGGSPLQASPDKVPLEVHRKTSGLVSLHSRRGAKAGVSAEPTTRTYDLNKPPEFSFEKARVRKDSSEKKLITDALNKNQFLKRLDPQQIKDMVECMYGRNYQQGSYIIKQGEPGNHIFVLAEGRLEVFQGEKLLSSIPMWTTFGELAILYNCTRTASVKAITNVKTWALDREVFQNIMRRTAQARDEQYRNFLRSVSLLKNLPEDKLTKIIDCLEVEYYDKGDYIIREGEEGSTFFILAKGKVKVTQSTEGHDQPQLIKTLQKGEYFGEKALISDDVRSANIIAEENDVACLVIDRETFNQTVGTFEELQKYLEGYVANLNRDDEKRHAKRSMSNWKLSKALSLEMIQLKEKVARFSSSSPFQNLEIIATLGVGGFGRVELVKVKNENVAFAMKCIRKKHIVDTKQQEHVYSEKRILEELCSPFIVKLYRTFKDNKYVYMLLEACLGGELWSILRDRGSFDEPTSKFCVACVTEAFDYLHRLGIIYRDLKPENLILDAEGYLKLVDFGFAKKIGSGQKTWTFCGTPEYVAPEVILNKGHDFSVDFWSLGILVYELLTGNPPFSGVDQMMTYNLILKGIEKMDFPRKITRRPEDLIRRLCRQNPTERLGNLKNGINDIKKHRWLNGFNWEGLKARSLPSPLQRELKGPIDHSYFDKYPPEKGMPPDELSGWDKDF

Structure (SMILES) | remaining binding at 10 µM (KinomeScan kinase panel [1]) [%] | remaining binding at 10 µM (KinomeScan kinase panel [2]; kinase TGFBR2, 10 µM) [%] | score (%) (KinomeScan kinase panel [3]; JAK2(JH1domain-catalytic)) | remaining binding at 10 µM (KinomeScan kinase panel [4]; PRKCE) [%] | remaining binding at 10 µM (KinomeScan kinase panel [5]) [%] | remaining binding at 10 µM (KinomeScan kinase panel [6]) [%] | remaining binding at 10 µM (KinomeScan kinase panel [7]) [%] | score (%) (KinomeScan kinase panel [8]) | remaining binding at 10 µM (KinomeScan kinase panel [9]; kinase RPS6KA3(Kin.Dom.1-N-terminal)) [%] | score (%) (KinomeScan kinase panel [10]) | remaining binding at 10 µM (KinomeScan kinase panel [11]; PRKG2, 10 µM) [%] | remaining binding at 10 µM (KinomeScan kinase panel [2]; TGFBR2, 10 µM) [%] | score (%) (KinomeScan kinase panel [3]; JAK2(Kin.Dom.2)) | remaining binding at 10 µM (KinomeScan kinase panel [9]; RPS6KA3(Kin.Dom.1)) [%] | score (%) (KinomeScan kinase panel [10]; EGFR(S752-I759del), 10 µM) | remaining binding at 10 µM (KinomeScan kinase panel [4]; kinase PRKCE) [%] | remaining binding at 10 µM (KinomeScan kinase panel [9]; kinase RSK2(Kin.Dom.1-N-terminal)) [%] | remaining binding at 10 µM (KinomeScan kinase panel [11]; kinase PRKG2, 10 µM) [%]
CCN1CCN(Cc2ccc(NC(=O)c3ccc(C)c(NC(=O)c4cncc(-c5cccs5)c4)c3)cc2C(F)(F)F)CC1 [ALW-II-41-27] | > 30 | 4.6 | 11 | 5 | 6.4 | 4.4 | 1.8 | nb (Hits values higher than 30% were considered negative (no binding: nb)) | > 30 | 3 | > 30 | – | – | – | – | – | – | –
CCN1CCN(Cc2ccc(NC(=O)c3ccc(C)c(/C=C/c4cnc5[nH]ccc5c4Cl)c3)cc2C(F)(F)F)CC1 [HG-6-63-01, (E)-3-(2-(4-chloro-1H-pyrrolo[2,3-b]pyridin-5-yl)vinyl)-N-(4-((4-ethylpiperazin-1-yl)methyl)-3-(trifluoromethyl)phenyl)-4-methylbenzamide] | > 30 | – | – | > 30 | 0.3 | > 30 | 0.35 | nb (Hits values higher than 30% were considered negative (no binding: nb)) | – | – | > 30 | 2.8 | 12 | > 30 | 0 | – | – | –
CCN1CCN(Cc2ccc(NC(=O)c3ccc(C)c(C#Cc4cccnc4)c3)cc2C(F)(F)F)CC1 [XMD15-44] | 18 | 1.3 | 3 | – | 3.3 | > 30 | 0.25 | 24% | – | – | – | – | – | – | 0.9 | 54 | 16 | 97
